Where two headings read alike, the source gives them in different places.

The test system of one data set is human enterocytes. The experiment in a line: 7-ethoxycoumarin O-deethylation (ECOD) activity in human enterocytes. Conditions: Group D permeabilized enterocytes with cofactors compared with Groups A-C (intact ± cofactors, permeabilized without cofactors). Type of data set: in vitro ADME. How it is done: The assay was performed essentially as disclosed in Example 2, wherein the in vitro reagent comprises enterocytes and exogenous drug metabolizing enzyme co-factors (NADPH, UPGA, and PAPS), herein referred to as “cofactors”. As comparators, intact enterocytes, that were not permeabilized, were used wherein one group was incubated with cofactors and another group was incubated without cofactors, each in the presence of the xenobiotic test compound. Permeabilized enterocytes incubated without cofactors were used as a control. The test groups were: Group A—intact enterocytes incubated without cofactors; Group B—intact enterocytes incubated with cofactors; Group C—permeabilized enterocytes incubated without cofactors (control); Group D—the in vitro reagent (permeabilized enterocytes incubated with cofactors). […] Permeabilization (by freezing without cryoprotectants followed by thawing) allows maximal interaction of the intracellular enzymes with the substrate (7-ethoxycoumarin), and the addition of cofactors overcomes the dilution of intracellular cofactors due to permeabilization.

The conditions of data set [1]: known in vivo hepatic clearance, human; cited from earlier work.
For a further data set, the target named is T1, 2J2 (Homo sapiens, UniProt P51589).
T1 construct: enterocytes are isolated from human intestines by collagenase digestion; endogenous in cells; host or cells: primary human enterocytes, intact or permeabilized with cofactors
T1 sequence (P51589 1-502): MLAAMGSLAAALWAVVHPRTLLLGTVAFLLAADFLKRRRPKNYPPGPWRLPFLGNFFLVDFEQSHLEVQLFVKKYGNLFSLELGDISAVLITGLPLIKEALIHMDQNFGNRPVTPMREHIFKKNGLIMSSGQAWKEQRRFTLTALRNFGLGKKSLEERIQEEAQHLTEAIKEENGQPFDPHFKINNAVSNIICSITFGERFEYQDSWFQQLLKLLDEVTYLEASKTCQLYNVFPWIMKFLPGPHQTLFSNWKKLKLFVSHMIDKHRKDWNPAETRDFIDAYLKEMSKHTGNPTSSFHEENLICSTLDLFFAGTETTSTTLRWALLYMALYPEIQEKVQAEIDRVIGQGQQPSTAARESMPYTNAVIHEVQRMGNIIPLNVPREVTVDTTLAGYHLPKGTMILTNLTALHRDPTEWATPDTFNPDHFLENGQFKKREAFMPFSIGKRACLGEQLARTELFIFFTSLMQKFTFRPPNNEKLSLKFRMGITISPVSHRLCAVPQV
The experiment in a line: Pathway-selective substrate metabolism in human enterocytes, 2J2. Particulars: Intact Cryopreserved Enterocytes; 30 min, 37° C. Format: in vitro ADME.

For data set [2], the system named is permeabilized human hepatocytes.
Experimental: The drugs evaluated were added at a concentration of 1 μM to a hepatocyte culture of 1 million cells/ml.
Data set [3] shares this test system. The experiment in a line: Cofactor-directed metabolic pathway selection of coumarin metabolism. Format: in vitro ADME. Particulars: 75 micromolar coumarin, 30 min. Here is the method: Intact human hepatocytes allow metabolism of a drug by all hepatic pathways, selection of a specific metabolic pathway for evaluation is not easily accomplished. […] The metabolism of coumarin was used as a model for cofactor directed metabolic pathway selection. See FIG. 12 for the co-factor directed pathway selection of coumarin metabolism with the present permeabilized human hepatocytes. The exogenous drug metabolizing enzyme co-factors used were 2 mM NADPH, 2 mM NADPH+1 mM PAPS and 2 mM NADPH+5 mM […], and no cofactor addition used as a control.

Consider `CCOc1ccc2ccc(=O)oc2c1` [7-ethoxycoumarin], for which the “7-ethoxycoumarin O-deethylation (ECOD) activity” value in the data set on human enterocytes was “Highest activity”.

With `CN(C)C/C=C/C(=O)Nc1cc2c(Nc3ccc(F)c(Cl)c3)ncnc2cc1O[C@H]1CCOC1` [Afatinib], in data set [1], the “Observed in vivo CIsys” value was 15 mL/min/kg.

For the compound `Cc1cc(=O)n(-c2ccccc2)n1C` [Antipyrine], in data set [1], the “Observed in vivo CIsys” value was 0.5 mL/min/kg.

Take `COc1ccc(CCN2CCC(Nc3nc4ccccc4n3Cc3ccc(F)cc3)CC2)cc1` [Astemizole]: on 2J2, the “Metabolic Activity, O-Demethyl Astemizole formation” value was “BLQ”.

Regarding `CC(C)NCC(O)COc1ccc(CCOCC2CC2)cc1` (stereo not drawn) [Betaxolol], the “Observed in vivo CIsys” value in data set [1] is recorded as 4.8 mL/min/kg.

As to `NC(=O)N1c2ccccc2C=Cc2ccccc21` [Carbamazepine], the “Observed in vivo CIsys” value in data set [1] is reported as 0.4 mL/min/kg.

On to `O=P1(N(CCCl)CCCl)NCCCO1` (stereo not drawn) [Cyclophosphamide], for which, in the data set on HEK293 cells (with permeabilized human hepatocytes (cofactor supplemented) vs boiled or no hepatocytes, 24 hours), the “cytotoxicity on HEK 293 cells (cellular ATP content)” value is on record as “enhanced”.

In the case of `COc1ccc2c(c1)[C@]13CCCC[C@@H]1[C@H](C2)N(C)CC3` [Dextromethorphan], the “Observed in vivo CIsys” value in data set [1] is reported as 8.6 mL/min/kg. The “Permeabilized Hepatocytes Average (predicted clearance)” value in data set [2] is recorded as 7.3.

Turning to `CN1C(=O)CN=C(c2ccccc2)c2cc(Cl)ccc21` [Diazepam], the “Observed in vivo CIsys” value in data set [1] is on record as 0.4 mL/min/kg.

For the compound `O=C(O)Cc1ccccc1Nc1c(Cl)cccc1Cl` [Diclofenac], the “Observed in vivo CIsys” value in data set [1] is listed as 4.2 mL/min/kg.

Regarding `O=P1(NCCCl)OCCCN1CCCl` (stereo not drawn) [Ifosfamide], in the data set on HEK293 cells, the “cytotoxicity on HEK 293 cells (cellular ATP content)” value is “enhanced”.

Consider `O=C1Nc2ccc(Cl)cc2C(c2ccccc2Cl)=NC1O` (stereo not drawn) [Lorazepam], for which, in data set [1], the “Observed in vivo CIsys” value is given as 1.1 mL/min/kg.

`O=c1ccc2ccccc2o1` [coumarin]: the “Cofactor selection Result (metabolite formation)” value in data set [3] (NADPH only (2 mM)) is “minimal sulfation and glucuronidation”; in data set [3] (No co-factors), “No metabolism”.

The values are drawn from US20180094320A1, “IN VITRO DRUG METABOLISM REAGENT AND USES THEREOF” (priority 2016, published 2018).
